{"source": "paper PMC4856055", "about": "(Journal of medicinal chemistry, 2015)", "key": {"[1]": {"test_system": "PSMA+ PC3 PIP and PSMA– PC3 flu xenografts", "type": "in vivo, mice", "settings": "for PIP:blood ratio / PIP:flu ratio / PIP:kidney ratio / PIP:muscle ratio / biodistribution, PC-3 PIP tumor / biodistribution, PC-3 flu tumor / biodistribution, bladder / biodistribution, blood / biodistribution, bone / biodistribution, fat / biodistribution, heart / biodistribution, kidney / biodistribution, large intestine / biodistribution, liver / biodistribution, lung / biodistribution, muscle / biodistribution, pancreas / biodistribution, small intestine / biodistribution, spleen / biodistribution, stomach: tumor bearing mice"}, "[2]": {"test_system": "PSMA+ PC3 PIP and PSMA– PC3 flu tumor xenografts", "assay": "Small animal PET or PET/CT imaging of tumor bearing mice", "type": "in vivo"}, "PSMA": {"biological_target": "PSMA (Homo sapiens, UniProt Q04609)", "sequence (Q04609 whole entry)": "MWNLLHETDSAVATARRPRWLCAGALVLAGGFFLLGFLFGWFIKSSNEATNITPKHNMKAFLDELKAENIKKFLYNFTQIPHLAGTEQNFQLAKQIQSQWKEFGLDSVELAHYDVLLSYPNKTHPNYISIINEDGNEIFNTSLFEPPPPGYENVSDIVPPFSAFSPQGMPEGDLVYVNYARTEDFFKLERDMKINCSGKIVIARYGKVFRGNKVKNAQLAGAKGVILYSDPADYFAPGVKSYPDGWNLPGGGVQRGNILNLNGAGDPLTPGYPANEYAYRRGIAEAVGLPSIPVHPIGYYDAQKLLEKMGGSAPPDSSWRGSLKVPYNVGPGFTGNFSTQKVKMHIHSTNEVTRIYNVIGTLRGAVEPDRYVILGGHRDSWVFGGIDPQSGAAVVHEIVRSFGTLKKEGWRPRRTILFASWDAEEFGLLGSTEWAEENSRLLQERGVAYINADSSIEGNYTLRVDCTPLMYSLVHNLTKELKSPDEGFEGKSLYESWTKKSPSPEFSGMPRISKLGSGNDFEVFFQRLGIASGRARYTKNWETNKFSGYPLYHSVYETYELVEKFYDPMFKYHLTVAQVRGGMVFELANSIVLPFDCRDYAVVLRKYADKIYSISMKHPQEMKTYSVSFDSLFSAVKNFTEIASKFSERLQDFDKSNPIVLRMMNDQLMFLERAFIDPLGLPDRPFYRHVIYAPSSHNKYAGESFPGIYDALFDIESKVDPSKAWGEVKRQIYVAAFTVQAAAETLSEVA", "settings": "ref 13d; cited from earlier work"}}, "note": "Values joined by “and” are separate entries in the source; they are usually repeats but may differ in a detail not shown here. Identical values can stand only once. Like-named read-outs stand apart in the source and are kept apart here.", "data": [{"compound": "O=C(O)CCC(OC(=O)NC(CCCCNC(=O)c1ccc(I)cc1[18F])C(=O)O)C(=O)O", "note": "(stereo not drawn) [[^18F]24, 4-iodo-2-[^18F]fluorobenzoyllysine OPA carbamate]", "values": [{"measurement": "PIP:blood ratio", "setting": "[1]; 0.5 h postinjection", "result": 5.6}, {"measurement": "PIP:flu ratio", "setting": "[1]; 0.5 h postinjection", "result": 9.1}, {"measurement": "PIP:kidney ratio", "setting": "[1]; 0.5 h postinjection", "result": 0.5}, {"measurement": "PIP:muscle ratio", "setting": "[1]; 0.5 h postinjection", "result": "47 and 46.6"}, {"measurement": "biodistribution, PC-3 PIP tumor", "setting": "[1]; 0.5 h postinjection", "result": "45 % ID/g and 44.7 ± 0.62 % ID/g"}, {"measurement": "biodistribution, PC-3 flu tumor", "setting": "[1]; 0.5 h postinjection", "result": "4.91 ± 1.10", "unit": "% ID/g"}, {"measurement": "biodistribution, bladder", "setting": "[1]; 0.5 h postinjection", "result": "3.89 ± 0.40", "unit": "% ID/g"}, {"measurement": "biodistribution, blood", "setting": "[1]; 0.5 h postinjection", "result": "7.94 ± 0.99", "unit": "% ID/g"}, {"measurement": "biodistribution, bone", "setting": "[1]; 0.5 h postinjection", "result": "1.52 ± 0.19", "unit": "% ID/g"}, {"measurement": "biodistribution, fat", "setting": "[1]; 0.5 h postinjection", "result": "1.65 ± 0.67", "unit": "% ID/g"}, {"measurement": "biodistribution, heart", "setting": "[1]; 0.5 h postinjection", "result": "2.27 ± 0.32", "unit": "% ID/g"}, {"measurement": "biodistribution, kidney", "setting": "[1]; 0.5 h postinjection", "result": "94.4 ± 8.22", "unit": "% ID/g"}, {"measurement": "biodistribution, large intestine", "setting": "[1]; 0.5 h postinjection", "result": "1.83 ± 0.16", "unit": "% ID/g"}, {"measurement": "biodistribution, liver", "setting": "[1]; 0.5 h postinjection", "result": "16.6 ± 1.61", "unit": "% ID/g"}, {"measurement": "biodistribution, lung", "setting": "[1]; 0.5 h postinjection", "result": "5.13 ± 0.29", "unit": "% ID/g"}, {"measurement": "biodistribution, muscle", "setting": "[1]; 0.5 h postinjection", "result": "0.96 ± 0.21", "unit": "% ID/g"}, {"measurement": "biodistribution, pancreas", "setting": "[1]; 0.5 h postinjection", "result": "1.78 ± 0.15", "unit": "% ID/g"}, {"measurement": "biodistribution, small intestine", "setting": "[1]; 0.5 h postinjection", "result": "1.37 ± 0.06", "unit": "% ID/g"}, {"measurement": "biodistribution, spleen", "setting": "[1]; 0.5 h postinjection", "result": "14.6 ± 4.41", "unit": "% ID/g"}, {"measurement": "biodistribution, stomach", "setting": "[1]; 0.5 h postinjection", "result": "1.80 ± 0.08", "unit": "% ID/g"}, {"measurement": "PIP:blood ratio", "setting": "[1]; 1 h postinjection", "result": "20 and 19.7"}, {"measurement": "PIP:flu ratio", "setting": "[1]; 1 h postinjection", "result": 25.4}, {"measurement": "PIP:kidney ratio", "setting": "[1]; 1 h postinjection", "result": 0.5}, {"measurement": "PIP:muscle ratio", "setting": "[1]; 1 h postinjection", "result": "100 and 100.2"}, {"measurement": "biodistribution, PC-3 PIP tumor", "setting": "[1]; 1 h postinjection", "result": "57.1 ± 19.55", "unit": "% ID/g"}, {"measurement": "biodistribution, PC-3 flu tumor", "setting": "[1]; 1 h postinjection", "result": "2.25 ± 1.62", "unit": "% ID/g"}, {"measurement": "biodistribution, bladder", "setting": "[1]; 1 h postinjection", "result": "2.19 ± 0.22", "unit": "% ID/g"}, {"measurement": "biodistribution, blood", "setting": "[1]; 1 h postinjection", "result": "2.90 ± 1.98", "unit": "% ID/g"}, {"measurement": "biodistribution, bone", "setting": "[1]; 1 h postinjection", "result": "0.78 ± 0.14", "unit": "% ID/g"}, {"measurement": "biodistribution, fat", "setting": "[1]; 1 h postinjection", "result": "0.88 ± 0.68", "unit": "% ID/g"}, {"measurement": "biodistribution, heart", "setting": "[1]; 1 h postinjection", "result": "1.23 ± 0.22", "unit": "% ID/g"}, {"measurement": "biodistribution, kidney", "setting": "[1]; 1 h postinjection", "result": "122 ± 21.9", "unit": "% ID/g"}, {"measurement": "biodistribution, large intestine", "setting": "[1]; 1 h postinjection", "result": "0.78 ± 0.13", "unit": "% ID/g"}, {"measurement": "biodistribution, liver", "setting": "[1]; 1 h postinjection", "result": "15.5 ± 2.00", "unit": "% ID/g"}, {"measurement": "biodistribution, lung", "setting": "[1]; 1 h postinjection", "result": "3.31 ± 0.41", "unit": "% ID/g"}, {"measurement": "biodistribution, muscle", "setting": "[1]; 1 h postinjection", "result": "0.57 ± 0.06", "unit": "% ID/g"}, {"measurement": "biodistribution, pancreas", "setting": "[1]; 1 h postinjection", "result": "1.23 ± 0.29", "unit": "% ID/g"}, {"measurement": "biodistribution, small intestine", "setting": "[1]; 1 h postinjection", "result": "1.83 ± 1.12", "unit": "% ID/g"}, {"measurement": "biodistribution, spleen", "setting": "[1]; 1 h postinjection", "result": "7.81 ± 4.22", "unit": "% ID/g"}, {"measurement": "biodistribution, stomach", "setting": "[1]; 1 h postinjection", "result": "0.99 ± 0.17", "unit": "% ID/g"}, {"measurement": "PIP:blood ratio", "setting": "[1]; 2 h postinjection", "result": 66}, {"measurement": "PIP:flu ratio", "setting": "[1]; 2 h postinjection", "result": 71.1}, {"measurement": "PIP:kidney ratio", "setting": "[1]; 2 h postinjection", "result": 0.7}, {"measurement": "PIP:muscle ratio", "setting": "[1]; 2 h postinjection", "result": "250 and 250.5"}, {"measurement": "biodistribution, PC-3 PIP tumor", "setting": "[1]; 2 h postinjection", "result": "85.2 ± 5.44", "unit": "% ID/g"}, {"measurement": "biodistribution, PC-3 flu tumor", "setting": "[1]; 2 h postinjection", "result": "1.20 ± 0.31", "unit": "% ID/g"}, {"measurement": "biodistribution, bladder", "setting": "[1]; 2 h postinjection", "result": "7.48 ± 0.68", "unit": "% ID/g"}, {"measurement": "biodistribution, blood", "setting": "[1]; 2 h postinjection", "result": "1.29 ± 0.87", "unit": "% ID/g"}, {"measurement": "biodistribution, bone", "setting": "[1]; 2 h postinjection", "result": "0.36 ± 0.02", "unit": "% ID/g"}, {"measurement": "biodistribution, fat", "setting": "[1]; 2 h postinjection", "result": "1.12 ± 0.43", "unit": "% ID/g"}, {"measurement": "biodistribution, heart", "setting": "[1]; 2 h postinjection", "result": "0.57 ± 0.09", "unit": "% ID/g"}, {"measurement": "biodistribution, kidney", "setting": "[1]; 2 h postinjection", "result": "115 ± 13.2", "unit": "% ID/g"}, {"measurement": "biodistribution, large intestine", "setting": "[1]; 2 h postinjection", "result": "0.55 ± 0.01", "unit": "% ID/g"}, {"measurement": "biodistribution, liver", "setting": "[1]; 2 h postinjection", "result": "8.99 ± 0.55", "unit": "% ID/g"}, {"measurement": "biodistribution, lung", "setting": "[1]; 2 h postinjection", "result": "1.91 ± 0.29", "unit": "% ID/g"}, {"measurement": "biodistribution, muscle", "setting": "[1]; 2 h postinjection", "result": "0.34 ± 0.07", "unit": "% ID/g"}, {"measurement": "biodistribution, pancreas", "setting": "[1]; 2 h postinjection", "result": "0.92 ± 0.40", "unit": "% ID/g"}, {"measurement": "biodistribution, small intestine", "setting": "[1]; 2 h postinjection", "result": "1.19 ± 0.61", "unit": "% ID/g"}, {"measurement": "biodistribution, spleen", "setting": "[1]; 2 h postinjection", "result": "6.78 ± 1.25", "unit": "% ID/g"}, {"measurement": "biodistribution, stomach", "setting": "[1]; 2 h postinjection", "result": "0.51 ± 0.07", "unit": "% ID/g"}, {"measurement": "PIP:blood ratio", "setting": "[1]; 4 h postinjection", "result": "156 and 155.8"}, {"measurement": "PIP:flu ratio", "setting": "[1]; 4 h postinjection", "result": 231.1}, {"measurement": "PIP:kidney ratio", "setting": "[1]; 4 h postinjection", "result": 1.3}, {"measurement": "PIP:muscle ratio", "setting": "[1]; 4 h postinjection", "result": 743}, {"measurement": "biodistribution, PC-3 PIP tumor", "setting": "[1]; 4 h postinjection", "result": "97 % ID/g and 96.6 ± 18.7 % ID/g"}, {"measurement": "biodistribution, PC-3 flu tumor", "setting": "[1]; 4 h postinjection", "result": "0.42 ± 0.07", "unit": "% ID/g"}, {"measurement": "biodistribution, bladder", "setting": "[1]; 4 h postinjection", "result": "2.03 ± 1.09", "unit": "% ID/g"}, {"measurement": "biodistribution, blood", "setting": "[1]; 4 h postinjection", "result": "0.62 ± 0.10", "unit": "% ID/g"}, {"measurement": "biodistribution, bone", "setting": "[1]; 4 h postinjection", "result": "0.18 ± 0.04", "unit": "% ID/g"}, {"measurement": "biodistribution, fat", "setting": "[1]; 4 h postinjection", "result": "0.58 ± 0.17", "unit": "% ID/g"}, {"measurement": "biodistribution, heart", "setting": "[1]; 4 h postinjection", "result": "0.24 ± 0.04", "unit": "% ID/g"}, {"measurement": "biodistribution, kidney", "setting": "[1]; 4 h postinjection", "result": "74.4 ± 13.8", "unit": "% ID/g"}, {"measurement": "biodistribution, large intestine", "setting": "[1]; 4 h postinjection", "result": "0.96 ± 0.25", "unit": "% ID/g"}, {"measurement": "biodistribution, liver", "setting": "[1]; 4 h postinjection", "result": "2.77 ± 0.49", "unit": "% ID/g"}, {"measurement": "biodistribution, lung", "setting": "[1]; 4 h postinjection", "result": "0.94 ± 0.06", "unit": "% ID/g"}, {"measurement": "biodistribution, muscle", "setting": "[1]; 4 h postinjection", "result": "0.13 ± 0.04", "unit": "% ID/g"}, {"measurement": "biodistribution, pancreas", "setting": "[1]; 4 h postinjection", "result": "0.26 ± 0.06", "unit": "% ID/g"}, {"measurement": "biodistribution, small intestine", "setting": "[1]; 4 h postinjection", "result": "0.24 ± 0.09", "unit": "% ID/g"}, {"measurement": "biodistribution, spleen", "setting": "[1]; 4 h postinjection", "result": "3.49 ± 0.86", "unit": "% ID/g"}, {"measurement": "biodistribution, stomach", "setting": "[1]; 4 h postinjection", "result": "0.19 ± 0.03", "unit": "% ID/g"}, {"measurement": "tumor/kidney ratio", "setting": "[1]; at 2–4 h", "result": "approximately 1"}, {"measurement": "PSMA+ PC3 PIP tumor uptake on small animal PET imaging", "setting": "[2]; male SCID mice with PSMA+ PC3 PIP and PSMA– PC3 flu xenografts", "result": "Intense and selective radiotracer uptake"}, {"measurement": "uptake in salivary glands on imaging", "setting": "[2]; mouse, in vivo", "result": "Neither [^18F]23 nor [^18F]24 demonstrated any uptake in salivary glands"}]}, {"compound": "O=C(O)CC[C@H](NC(=O)N[C@@H](CCCCNC(=O)c1ccc(F)cc1)C(=O)O)C(=O)O", "note": "[compound 9]", "values": [{"measurement": "Ki", "setting": "PSMA", "result": 250, "unit": "pM"}]}]}
